The values that follow come from US9902702B2, “Spirocycloheptanes as inhibitors of rock” (BRISTOL-MYERS SQUIBB COMPANY, priority 2014, dated 2018).

SMILES strings stand for the structures.

The target in the assay is ROCK2 (Homo sapiens, UniProt O75116). Nature of the assay: ROCK assay: phosphorylation of FITC peptide substrate, LABCHIP 3000 mobility shift. The assay is classed as biochemical. Conditions: 5 μM ATP, 1.5 μM peptide substrate; read-out: ROCK2 Activity (ROCK IC50 range). The protocol: The effectiveness of compounds of the present invention as ROCK inhibitors can be determined in a 30 μL assay containing 20 mM HEPES, pH 7.5, 20 mM MgCl2, 0.015% Brij-35, 4 mM DTT, 5 μM ATP and 1.5 μM peptide substrate (FITC-AHA-AKRRRLSSLRA-OH). Compounds were dissolved in DMSO so that the final concentration of DMSO was <2%, and the reaction was initiated with Rho kinase variants. After incubation, the reaction was terminated by the addition of EDTA and the phosphorylated and non-phosphorylated peptides separated using a LABCHIP® 3000 Reader (Caliper Life Sciences). […] Compounds were tested in dose-response format, and the inhibition of kinase activity was calculated at each concentration of compound. The inhibition data were fit using a curve-fitting program to determine the IC50; i.e., the concentration of compound required to inhibit 50% of kinase activity.
Sequence of ROCK2 (O75116 whole entry, species assumed): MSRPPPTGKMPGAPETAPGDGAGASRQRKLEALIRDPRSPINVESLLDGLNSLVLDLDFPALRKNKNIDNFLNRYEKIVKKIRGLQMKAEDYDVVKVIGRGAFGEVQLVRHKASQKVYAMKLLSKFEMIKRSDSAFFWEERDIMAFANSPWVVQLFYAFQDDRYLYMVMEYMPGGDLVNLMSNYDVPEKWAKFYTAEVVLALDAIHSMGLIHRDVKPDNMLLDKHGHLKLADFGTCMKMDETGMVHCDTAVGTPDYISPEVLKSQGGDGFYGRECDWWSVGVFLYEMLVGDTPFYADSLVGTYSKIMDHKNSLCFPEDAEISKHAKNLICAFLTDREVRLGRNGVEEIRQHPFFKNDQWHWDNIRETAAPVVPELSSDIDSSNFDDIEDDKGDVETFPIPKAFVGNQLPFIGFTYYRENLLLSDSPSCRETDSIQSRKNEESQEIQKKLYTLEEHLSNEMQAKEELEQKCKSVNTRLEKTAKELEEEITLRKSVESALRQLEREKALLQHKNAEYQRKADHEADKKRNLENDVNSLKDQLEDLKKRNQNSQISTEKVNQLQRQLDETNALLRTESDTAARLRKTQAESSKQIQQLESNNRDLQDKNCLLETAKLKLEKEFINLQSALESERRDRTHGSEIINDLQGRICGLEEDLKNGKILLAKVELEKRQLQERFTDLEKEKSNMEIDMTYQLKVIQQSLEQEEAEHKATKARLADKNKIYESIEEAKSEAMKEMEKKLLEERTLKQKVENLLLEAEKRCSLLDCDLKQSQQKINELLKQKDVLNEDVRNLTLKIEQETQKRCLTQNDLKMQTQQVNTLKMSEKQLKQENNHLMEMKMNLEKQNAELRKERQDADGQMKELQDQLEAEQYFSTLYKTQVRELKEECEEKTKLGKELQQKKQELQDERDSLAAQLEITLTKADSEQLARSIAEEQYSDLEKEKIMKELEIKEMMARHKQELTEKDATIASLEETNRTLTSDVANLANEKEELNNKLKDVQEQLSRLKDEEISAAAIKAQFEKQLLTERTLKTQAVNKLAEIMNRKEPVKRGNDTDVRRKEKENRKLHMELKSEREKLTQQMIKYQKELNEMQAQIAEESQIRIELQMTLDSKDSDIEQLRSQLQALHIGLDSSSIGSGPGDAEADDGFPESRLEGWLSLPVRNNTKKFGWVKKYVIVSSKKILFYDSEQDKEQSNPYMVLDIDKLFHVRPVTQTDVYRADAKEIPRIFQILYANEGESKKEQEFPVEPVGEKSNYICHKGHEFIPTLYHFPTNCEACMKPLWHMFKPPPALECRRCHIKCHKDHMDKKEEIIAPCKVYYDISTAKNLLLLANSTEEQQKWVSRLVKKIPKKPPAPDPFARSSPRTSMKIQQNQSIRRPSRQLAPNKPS
Representative Examples were tested in the ROCK assay described above and found having ROCK inhibitory activity.
Regarding `Cn1nc(C(=O)N[C@H]2CC3(C2)C[C@H](c2n[nH]c(=O)c4ccccc42)C3)c2ccccc21` (single isomer, unassigned) [Example 14], the IC50 (in general, the midpoint of a concentration-inhibition curve) lay in the range of 0.00201 to 0.005 µM.
Next, `O=C(N[C@H]1CC2(C1)C[C@H](c1n[nH]c(=O)c3ccccc31)C2)c1ccn(CC(F)(F)F)n1` (single isomer, unassigned) [Example 15]: 0.0051 to 0.015 µM; `O=C(N[C@H]1CC2(C1)C[C@H](c1n[nH]c(=O)c3ccccc31)C2)c1ccn(CC(F)F)n1` (single isomer, unassigned) [Example 16]: 0.00201 to 0.005 µM; `Cn1nc(C(=O)N[C@H]2CC3(C2)C[C@H](c2n[nH]c(=O)c4ccccc42)C3)c2ccccc21` (single isomer, unassigned) [Example 17]: 0.1 to 2.1 µM.
Take `O=C(N[C@H]1CC2(C1)C[C@H](c1n[nH]c(=O)c3ccccc31)C2)c1ccn(CC(F)(F)F)n1` (single isomer, unassigned) [Example 18]: the 50% inhibitory concentration (IC50) is 0.1 to 2.1 µM.
Next, `CC(C)(O)Cn1nc(C(=O)NC2CC3(C2)CC(c2n[nH]c(=O)c4ccccc24)C3)c2ccccc21` (single isomer, unassigned) [Example 21]: 0.00201 to 0.005 µM; `O=C(NC1CC2(C1)CC(c1n[nH]c(=O)c3ccccc13)C2)C1Cc2ccccc2C1` (stereo not shown) [Example 1, N-[6-(4-oxo-3,4-dihydrophthalazin-1-yl)spiro[3.3]heptan-2-yl]-2,3-dihydro-1H-indene-2-carboxamide]: 0.1 to 2.1 µM; `CN(C)c1ccc(C(=O)NC2CC3(C2)CC(c2n[nH]c(=O)c4ccccc24)C3)cc1` (stereo not shown) [Example 2, 4-(dimethylamino)-N-[6-(4-oxo-3,4-dihydrophthalazin-1-yl)spiro[3.3]heptan-2-yl]benzamide]: 0.1 to 2.1 µM.
Then `O=C(Cc1cccc2ccccc12)NC1CC2(C1)CC(c1n[nH]c(=O)c3ccccc13)C2` (stereo not shown) [Example 3, 2-(naphthalen-1-yl)-N-[6-(4-oxo-3,4-dihydrophthalazin-1-yl)spiro[3.3]heptan-2-yl]acetamide], with 0.1 to 2.1 µM; and `O=C(Cc1ccc2ccccc2c1)NC1CC2(C1)CC(c1n[nH]c(=O)c3ccccc13)C2` (stereo not shown) [Example 4, 2-(naphthalen-2-yl)-N-[6-(4-oxo-3,4-dihydrophthalazin-1-yl)spiro[3.3]heptan-2-yl]acetamide], with 0.1 to 2.1 µM; and `Cn1nc(C(=O)NC2CC3(C2)CC(c2n[nH]c(=O)c4ccccc24)C3)c2ccccc21` (stereo not shown) [Example 5, 1-methyl-N-[6-(4-oxo-3,4-dihydrophthalazin-1-yl)spiro[3.3]heptan-2-yl]-1H-indazole-3-carboxamide], with 0.00201 to 0.005 µM.
In the case of `O=C(CCc1ccccc1)NC1CC2(C1)CC(c1n[nH]c(=O)c3ccccc13)C2` (stereo not shown) [Example 6, N-[6-(4-oxo-3,4-dihydrophthalazin-1-yl)spiro[3.3]heptan-2-yl]-3-phenylpropanamide], the half-maximal inhibitory concentration (IC50) lay within 0.1 to 2.1 µM.
Next, `O=C(NC1CC2(C1)CC(c1n[nH]c(=O)c3ccccc13)C2)c1ccn(CC(F)(F)F)n1` (stereo not shown) [Example 7, N-[6-(4-oxo-3,4-dihydrophthalazin-1-yl)spiro[3.3]heptan-2-yl]-1-(2,2,2-trifluoroethyl)-1H-pyrazole-3-carboxamide]: 0.0051 to 0.015 µM; `Cc1nn(-c2ccccc2)cc1C(=O)NC1CC2(C1)CC(c1n[nH]c(=O)c3ccccc13)C2` (stereo not shown) [Example 8, 3-methyl-N-[6-(4-oxo-3,4-dihydrophthalazin-1-yl)spiro[3.3]heptan-2-yl]-1-phenyl-1H-pyrazole-4-carboxamide]: 0.0151 to 0.1 µM.
Then `CC(C)(C)n1cc(C(=O)NC2CC3(C2)CC(c2n[nH]c(=O)c4ccccc24)C3)cn1` (stereo not shown) [Example 9, 1-tert-butyl-N-[6-(4-oxo-3,4-dihydrophthalazin-1-yl)spiro[3.3]heptan-2-yl]-1H-pyrazole-4-carboxamide], with 0.0151 to 0.1 µM.
Next, `O=C(NC1CC2(C1)CC(c1n[nH]c(=O)c3ccccc13)C2)c1ccn(-c2ccccc2)n1` (stereo not shown) [Example 10, N-[6-(4-oxo-3,4-dihydrophthalazin-1-yl)spiro[3.3]heptan-2-yl]-1-phenyl-1H-pyrazole-3-carboxamide]: 0.1 to 2.1 µM.
